Measurements taken from US9089136B2, “Pyrimidine compound and use thereof for pest control” (Sumitomo Chemical Company, Limited, priority 2010, dated 2015).

Assays:
[1] = system: Aphis gossypii; experiment: Test Example 1: spray test against Aphis gossypii on cucumber seedling; type: in vivo; details: 144 h, 500 ppm active ingredient, formulation of Formulation Example 5 diluted with water, 20 ml sprayed on cucumber seedling, six days after spraying
Description: On the other hand, about 30 Aphis gossypii were incubated on a cucumber seeding (the first true leaf stage) planted in a plastic cup, and leaving it for a day. 20 ml of each of the above test spray solutions was sprayed on this seeding. Six days after spraying, the number of the surviving Aphis gossypii parasitized on the leaves of the cucumber was examined, and a control value was calculated according to the following equation: Control value(%)={1−(Cb×Tai)/(Cai×Tb))×100 wherein symbols represent as follows: Cb: the number of insects in a non-treated section before treatment, Cai: the number of insects in a non-treated section in observation, Tb: the number of insects in a treated-section before treatment, Tai: the number of insects in a treated-section in observation.

[2] = system: Bemisia tabaci; experiment: Test Example 2: spray test against Bemisia tabaci instar larvae on tomato seedling; type: in vivo; details: 168 h, 500 ppm active ingredient, formulation of Formulation Example 5 diluted with water, 10 ml/cup sprayed on tomato seedling, greenhouse at 25° C., after 7 days
Description: On the other hand, Bemisia tabaci adult was released on a tomato seeding (the third true leaf stage) planted in a polyethylene cup, and made to lay eggs for about 24 hours. The tomato seedling was kept in a greenhouse for 8 days. When instar larvae hatched from the eggs, the above test spray solution was sprayed in the amount of 10 ml/cup. The cup was kept in a greenhouse at 25° C. After the keeping for 7 days, the number of surviving instar larvae on the tomato leaves was examined, and a control value was calculated according to the following equation: Control value(%)={1−(Cb×Tai)/(Cai×Tb))×100 wherein symbols represent as follows: Cb: the number of pests in a non-treated section before treatment, Cai: the number of pests in a non-treated section in observation, Tb: the number of pests in a treated-section before treatment, Tai: the number of pests in a treated-section in observation.

Compound | pest or weed control at 500 ppm [1] | pest or weed control at 500 ppm [2]
Cn1c(-c2ccncn2)nc2cc(C(F)(F)F)ccc21 [Compound 2] | ≥ 90% | ≥ 90%
Cn1c(-c2ncncc2OCC(F)(F)F)nc2cc(C(F)(F)F)cnc21 [Compound 3] | ≥ 90% | ≥ 90%
CCSc1cncnc1-c1nc2cc(C(F)(F)F)cnc2n1C [Compound 4] | ≥ 90% | ≥ 90%
CC[S+]([O-])c1cncnc1-c1nc2cc(C(F)(F)F)cnc2n1C (stereo not shown) [Compound 5] | ≥ 90% | ≥ 90%
CCS(=O)(=O)c1cncnc1-c1nc2cc(C(F)(F)F)cnc2n1C [Compound 6] | ≥ 90% | ≥ 90%
CCSc1cncnc1-c1nc2cc(C(F)(F)F)ccc2n1C [Compound 7, 2-(5-ethylthiopyrimidin-4-yl)-1-methyl-5-trifluoromethyl-1H-benzimidazole] | ≥ 90% | ≥ 90%
CC[S+]([O-])c1cncnc1-c1nc2cc(C(F)(F)F)ccc2n1C (stereo not shown) [Compound 8] | ≥ 90% | ≥ 90%
CCS(=O)(=O)c1cncnc1-c1nc2cc(C(F)(F)F)ccc2n1C [Compound 9] | ≥ 90% | ≥ 90%
CCc1cncnc1-c1nc2cc(C(F)(F)F)ccc2o1 [Compound 10] | ≥ 90% | ≥ 90%
Cn1c(-c2ncncc2Cl)nc2cc(C(F)(F)F)cnc21 [Compound 13] | ≥ 90% | ≥ 90%
CCc1cncnc1-c1nc2cc(C(F)(F)F)cnc2o1 [Compound 15] | ≥ 90% | ≥ 90%
